Data as given in patent US20060263802A1 (priority 2003, published 2006).

Columns and labels:
Type in all cases: binding
[1] = system: human monoclonal antibody CRJA
[2] = system: human monoclonal antibody CRJA; remark: listed apart in the source
[3] = system: human monoclonal antibody CRJB
[4] = system: human monoclonal antibody CR57
[5] = system: human monoclonal antibody CR57; remark: listed apart in the source
[6] = system: human monoclonal antibody CRJB; remark: listed apart in the source

Sequence | Binding of CRJA to linear peptide (PEPSCAN-ELISA signal) [1] | Binding of CRJA (10 μg/ml) to looped/cyclic peptide (PEPSCAN-ELISA) [2] | Binding of CRJB (10 μg/ml) to looped/cyclic peptide (PEPSCAN-ELISA) [3] | Binding of CR57 to linear peptide (PEPSCAN-ELISA signal) [4] | Binding of CR57 (10 μg/ml) to looped/cyclic peptide (PEPSCAN-ELISA) [5] | Binding of CRJB to linear peptide (PEPSCAN-ELISA signal) [6] | Binding of CRJA (10 μg/ml) to looped/cyclic peptide (PEPSCAN-ELISA signal) [2] | Binding of CRJB (10 μg/ml) to looped/cyclic peptide (PEPSCAN-ELISA signal) [3] | Binding of CR57 (10 μg/ml) to looped/cyclic peptide (PEPSCAN-ELISA signal) [5] | binding of antibody CR57 to linear peptide (PEPSCAN OD) [4]
SLLQQHMELLESSVI | 108 | 101 | 85 | 124 | 113 | 163 | – | – | – | –
PIDIHHLSCPNNLVV | 39 | – | – | 46 | – | 93 | 38 | 70 | 50 | –
FTNSRGKRASKGSET | 90 | – | – | 83 | – | 111 | 88 | 82 | 89 | –
TIFNKTLMEADAHYK | 100 | 96 | 91 | 107 | 114 | 123 | – | – | – | –
TILDKLGPWSPIDIH | 84 | – | – | 76 | – | 96 | 86 | 60 | 85 | –
ELKVGYILAIKMNGF | 84 | – | – | 87 | – | 132 | 93 | 83 | 84 | –
LKLCGVLGLRLMDGT | 100 | 90 | 72 | 918 | 89 | 145 | – | – | – | bound
ERGLYKSLKGACKLK | 101 | 104 | 72 | 90 | 100 | 118 | – | – | – | –
KGCLRVGGRCHPHVN | 108 | 102 | 91 | 68 | 65 | 130 | – | – | – | –
SGKCSGVAVSSTYCS | 65 | – | – | 64 | – | 121 | 85 | 57 | 77 | –
VADLDPYDRSLHSRV | 92 | – | – | 71 | – | 113 | 89 | 74 | 85 | –
DALESIMTTKSVSFR | 105 | 110 | 127 | 104 | 127 | 120 | – | – | – | –
